In paper PMC6746691 (European Journal of Drug Metabolism and Pharmacokinetics, 2019):

How the values were obtained:
[1] = Vancomycin treatment safety outcomes; assay type: in vivo, hospitalized adults (patients); details: for Neutropenia: absolute neutrophil counts < 1000/μL
[2] = Vancomycin clinical pharmacokinetics and serum concentrations; details: for AUC per TDM adjusted dose / AUC per initial dose: NONMEM; for AUC per TDM adjusted dose / t1/2 / AUC per initial dose / Initial vancomycin serum concentration, Peak / Initial vancomycin serum concentration, Trough-2 / Initial vancomycin serum concentration, Trough-1: median [IQR]; for Cl / Ke / Vd / t1/2: at treatment initiation; for Cl / Ke / Vd / Post-dose adjustment trough concentration: mean ± SD, SD; for AUC per initial dose: pre-TDM dose; for Initial vancomycin serum concentration, Peak / Initial vancomycin serum concentration, Trough-2 / Initial vancomycin serum concentration, Trough-1: pre-TDM; for Initial vancomycin serum concentration, Peak: 1–2 h post fourth dose infusion; for Initial vancomycin serum concentration, Trough-2: 30 min before the fifth dose; for Initial vancomycin serum concentration, Trough-1: 30 min before the fourth dose
[3] = tested on: suspected/confirmed staphylococcal or other Gram-positive infection; assay: Clinical effectiveness; assay type: in vivo, hospitalized adults (patients); details: for Length of hospitalization: median [min–max]
[4] = peak–trough-monitoring group (n = 30)
[5] = trough-only-monitoring group (n = 35)

In the case of `CN[C@H](CC(C)C)C(=O)N[C@H]1C(=O)N[C@@H](CC(N)=O)C(=O)N[C@H]2C(=O)N[C@H]3C(=O)N[C@H](C(=O)N[C@H](C(=O)O)c4cc(O)cc(O)c4-c4cc3ccc4O)[C@H](O)c3ccc(c(Cl)c3)Oc3cc2cc(c3O[C@@H]2O[C@H](CO)[C@@H](O)[C@H](O)[C@H]2O[C@H]2C[C@](C)(N)[C@H](O)[C@H](C)O2)Oc2ccc(cc2Cl)[C@H]1O` [vancomycin], the All-cause mortality [1, 4] is reported as 2 (6.7) n (%), the Neutropenia [1, 4] is reported as 1 (3.3) n (%) and the All-cause mortality [1, 5] is reported as 3 (8.6) n (%). For the same molecule, the Neutropenia [1, 5] was 3 (8.6) n (%), the “AUC per TDM adjusted dose” value [2, 4] was 223 [168.82] mg*h/L and the “AUC per TDM adjusted dose” value [2, 5] was 270 [156.02] mg*h/L. The Cl [2, 4] was 4.24 ± 2.20 L/h, the Ke [2, 4] was 0.089 ± 0.051 h⁻¹ and the Vd [2, 4] was 51.14 ± 9.96 L. The t1/2 [2, 4] was 7.23 [9.75] h, the Cl [2, 5] was 4.15 ± 2.22 L/h and the Ke [2, 5] was 0.094 ± 0.05 h⁻¹. The Vd [2, 5] was 48.5 ± 10.7 L, the t1/2 [2, 5] was 8.01 [11.12] h and the “Post-dose adjustment trough concentration” value [2, 4] was 15.6 ± 3.49 mg/L. The “AUC per initial dose” value [2, 4] was 228 [273.01] mg*h/L, the “AUC per initial dose” value [2, 5] was 227 [195.6] mg*h/L and the “Initial vancomycin serum concentration, Peak” value [2, 4] was 27.9 [17.8] mg/L. For the same molecule, the “Initial vancomycin serum concentration, Peak” value [2, 5] was 25 [10] mg/L, the “Initial vancomycin serum concentration, Trough-2” value [2, 4] was 8.9 [15.1] mg/L and the “Initial vancomycin serum concentration, Trough-2” value [2, 5] was 10.6 [10.5] mg/L. The “Initial vancomycin serum concentration, Trough-1” value [2, 4] was 8.4 [12.9] mg/L, the “Initial vancomycin serum concentration, Trough-1” value [2, 5] was 9 [8.3] mg/L and the “Post-dose adjustment trough concentration” value [2, 5] was 16.8 ± 3.09 mg/L. The Therapeutic failure [3, 4] was 7 (23.3) n (%), the Length of hospitalization [3, 4] was 15.5 [4–68.9] days and the Therapeutic failure [3, 5] was 18 (51.4) n (%). The Therapeutic cure ([3]; trough-only-monitoring group (n = 35), clinical and/or microbiologic cure, intention-to-treat) was 17 (48.6) n (%) and the Length of hospitalization [3, 5] was 20 [6–117] days.
